# Where two headings read alike, the source gives them in different places.
# Columns and labels:
# Assay in all cases: biochemical
# Set-up in all cases: species or system human cell line lysate
# [1] = target: Atypical kinase COQ8A, mitochondrial ; COQ8A ; Q8NI60 (Homo sapiens, UniProt Q8NI60)
# [2] = target: Beta-adrenergic receptor kinase 1 ; GRK2 ; P25098 (Homo sapiens, UniProt P25098)
# [3] = target: Calcium/calmodulin-dependent protein kinase type II subunit alpha ; CAMK2A ; Q9UQM7 (Homo sapiens, UniProt Q9UQM7)
# [4] = target: Dual specificity protein kinase CLK4 ; CLK4 ; Q9HAZ1 (Homo sapiens, UniProt Q9HAZ1)
# [5] = target: Dual specificity testis-specific protein kinase 1 ; TESK1 ; Q15569 (Homo sapiens, UniProt Q15569)
# [6] = target: Glycosaminoglycan xylosylkinase ; FAM20B ; O75063 (Homo sapiens, UniProt O75063)
# [7] = target: Inositol polyphosphate multikinase ; IPMK ; Q8NFU5 (Homo sapiens, UniProt Q8NFU5)
# [8] = target: Interleukin-1 receptor-associated kinase 4 ; IRAK4 ; Q9NWZ3 (Homo sapiens, UniProt Q9NWZ3)
# [9] = target: Isoform 2 of Ribosomal protein S6 kinase alpha-1 ; RPS6KA1 ; Q15418-2 (Homo sapiens, UniProt Q15418)
# [10] = target: Isoform 2 of Tyrosine-protein kinase Fyn ; FYN ; P06241-2 (Homo sapiens, UniProt P06241)
# [11] = target: Isoform Delta 12 of Calcium/calmodulin-dependent protein kinase type I ; CAMK2D ; Q13557-12 (Homo sapiens, UniProt Q13557)
# [12] = target: Microtubule-associated serine/threonine-protein kinase 3 ; MAST3 ; O60307 (Homo sapiens, UniProt O60307)
# [13] = target: Mitogen-activated protein kinase 6 ; MAPK6 ; Q16659 (Homo sapiens, UniProt Q16659)
# [14] = target: Mitogen-activated protein kinase kinase kinase 12 ; MAP3K12 ; Q12852 (Homo sapiens, UniProt Q12852)
# [15] = target: RAC-gamma serine/threonine-protein kinase ; AKT3 ; Q9Y243 (Homo sapiens, UniProt Q9Y243)
# [16] = target: Ribosomal protein S6 kinase beta-1 ; RPS6KB1 ; P23443 (Homo sapiens, UniProt P23443)
# [17] = target: STE20-like serine/threonine-protein kinase ; SLK ; Q9H2G2 (Homo sapiens, UniProt Q9H2G2)
# [18] = target: Serine/threonine-protein kinase MRCK beta ; CDC42BPB ; Q9Y5S2 (Homo sapiens, UniProt Q9Y5S2)
# [19] = target: Serine/threonine-protein kinase RIO2 ; RIOK2 ; Q9BVS4 (Homo sapiens, UniProt Q9BVS4)
# [20] = target: Serine/threonine-protein kinase ULK3 ; ULK3 ; Q6PHR2 (Homo sapiens, UniProt Q6PHR2)
# [21] = target: Serine/threonine-protein kinase haspin ; HASPIN ; Q8TF76 (Homo sapiens, UniProt Q8TF76)
# [22] = target: Tyrosine-protein kinase SYK ; SYK ; P43405 (Homo sapiens, UniProt P43405)
# [23] = target: cAMP-dependent protein kinase catalytic subunit beta ; PRKACB ; P22694 (Homo sapiens, UniProt P22694)
# [24] = read-out: BAY-1143572 (10 µM) / %Intensity relative to DMSO
# [25] = read-out: BAY-1251152 (10 µM) / %Intensity relative to DMSO
# Sequence of Mitogen-activated protein kinase kinase kinase 12 ; MAP3K12 ; Q12852 (Q12852 whole entry): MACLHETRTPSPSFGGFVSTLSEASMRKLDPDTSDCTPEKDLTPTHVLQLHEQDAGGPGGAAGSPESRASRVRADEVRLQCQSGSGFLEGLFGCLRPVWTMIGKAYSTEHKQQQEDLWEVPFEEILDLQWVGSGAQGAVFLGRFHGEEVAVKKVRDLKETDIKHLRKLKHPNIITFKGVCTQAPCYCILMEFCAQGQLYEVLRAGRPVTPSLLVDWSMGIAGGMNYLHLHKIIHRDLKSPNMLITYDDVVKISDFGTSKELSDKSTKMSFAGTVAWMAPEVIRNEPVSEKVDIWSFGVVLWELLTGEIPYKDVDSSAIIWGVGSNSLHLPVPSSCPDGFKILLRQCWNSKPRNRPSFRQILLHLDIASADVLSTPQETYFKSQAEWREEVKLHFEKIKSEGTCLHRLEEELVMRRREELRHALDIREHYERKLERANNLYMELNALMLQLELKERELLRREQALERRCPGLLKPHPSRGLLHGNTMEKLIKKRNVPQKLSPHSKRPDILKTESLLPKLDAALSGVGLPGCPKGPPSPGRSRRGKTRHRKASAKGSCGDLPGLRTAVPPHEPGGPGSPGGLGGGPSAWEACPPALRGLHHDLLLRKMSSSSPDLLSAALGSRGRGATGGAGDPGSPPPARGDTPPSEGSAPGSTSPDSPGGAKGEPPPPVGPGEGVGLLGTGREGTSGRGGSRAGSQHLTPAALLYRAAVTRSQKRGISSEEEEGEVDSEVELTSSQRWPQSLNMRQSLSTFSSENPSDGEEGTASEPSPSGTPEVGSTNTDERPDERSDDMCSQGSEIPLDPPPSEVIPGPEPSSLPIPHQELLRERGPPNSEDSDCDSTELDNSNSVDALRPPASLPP
# Sequence of Interleukin-1 receptor-associated kinase 4 ; IRAK4 ; Q9NWZ3 (Q9NWZ3 whole entry, canonical isoform): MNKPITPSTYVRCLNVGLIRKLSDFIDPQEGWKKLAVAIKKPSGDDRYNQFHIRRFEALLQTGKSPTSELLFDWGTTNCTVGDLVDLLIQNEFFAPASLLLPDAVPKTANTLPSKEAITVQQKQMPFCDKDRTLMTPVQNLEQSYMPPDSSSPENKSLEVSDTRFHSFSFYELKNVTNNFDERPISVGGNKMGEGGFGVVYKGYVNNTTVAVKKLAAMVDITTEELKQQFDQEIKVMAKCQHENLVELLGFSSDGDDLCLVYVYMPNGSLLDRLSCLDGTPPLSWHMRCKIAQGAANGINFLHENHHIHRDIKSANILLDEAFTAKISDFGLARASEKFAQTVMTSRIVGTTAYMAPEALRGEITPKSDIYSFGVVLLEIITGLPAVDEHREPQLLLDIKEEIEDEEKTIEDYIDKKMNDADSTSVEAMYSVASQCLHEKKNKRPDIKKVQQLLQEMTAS
# Sequence of RAC-gamma serine/threonine-protein kinase ; AKT3 ; Q9Y243 (Q9Y243 whole entry, one chain of several): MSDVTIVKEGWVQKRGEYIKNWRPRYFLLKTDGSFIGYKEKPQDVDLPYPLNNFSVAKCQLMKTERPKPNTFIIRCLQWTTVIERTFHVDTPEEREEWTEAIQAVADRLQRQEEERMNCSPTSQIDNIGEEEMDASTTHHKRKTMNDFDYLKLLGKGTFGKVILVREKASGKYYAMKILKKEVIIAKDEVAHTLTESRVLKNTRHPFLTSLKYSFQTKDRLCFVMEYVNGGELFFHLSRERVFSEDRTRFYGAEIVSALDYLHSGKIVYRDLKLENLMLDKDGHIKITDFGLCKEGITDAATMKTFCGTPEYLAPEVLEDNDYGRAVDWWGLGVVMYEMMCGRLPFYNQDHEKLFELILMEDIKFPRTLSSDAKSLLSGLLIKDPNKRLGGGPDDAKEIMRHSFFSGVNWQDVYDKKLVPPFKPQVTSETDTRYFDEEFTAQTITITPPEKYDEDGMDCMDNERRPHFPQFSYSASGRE
# Sequence of Microtubule-associated serine/threonine-protein kinase 3 ; MAST3 ; O60307 (O60307 whole entry, one chain of several): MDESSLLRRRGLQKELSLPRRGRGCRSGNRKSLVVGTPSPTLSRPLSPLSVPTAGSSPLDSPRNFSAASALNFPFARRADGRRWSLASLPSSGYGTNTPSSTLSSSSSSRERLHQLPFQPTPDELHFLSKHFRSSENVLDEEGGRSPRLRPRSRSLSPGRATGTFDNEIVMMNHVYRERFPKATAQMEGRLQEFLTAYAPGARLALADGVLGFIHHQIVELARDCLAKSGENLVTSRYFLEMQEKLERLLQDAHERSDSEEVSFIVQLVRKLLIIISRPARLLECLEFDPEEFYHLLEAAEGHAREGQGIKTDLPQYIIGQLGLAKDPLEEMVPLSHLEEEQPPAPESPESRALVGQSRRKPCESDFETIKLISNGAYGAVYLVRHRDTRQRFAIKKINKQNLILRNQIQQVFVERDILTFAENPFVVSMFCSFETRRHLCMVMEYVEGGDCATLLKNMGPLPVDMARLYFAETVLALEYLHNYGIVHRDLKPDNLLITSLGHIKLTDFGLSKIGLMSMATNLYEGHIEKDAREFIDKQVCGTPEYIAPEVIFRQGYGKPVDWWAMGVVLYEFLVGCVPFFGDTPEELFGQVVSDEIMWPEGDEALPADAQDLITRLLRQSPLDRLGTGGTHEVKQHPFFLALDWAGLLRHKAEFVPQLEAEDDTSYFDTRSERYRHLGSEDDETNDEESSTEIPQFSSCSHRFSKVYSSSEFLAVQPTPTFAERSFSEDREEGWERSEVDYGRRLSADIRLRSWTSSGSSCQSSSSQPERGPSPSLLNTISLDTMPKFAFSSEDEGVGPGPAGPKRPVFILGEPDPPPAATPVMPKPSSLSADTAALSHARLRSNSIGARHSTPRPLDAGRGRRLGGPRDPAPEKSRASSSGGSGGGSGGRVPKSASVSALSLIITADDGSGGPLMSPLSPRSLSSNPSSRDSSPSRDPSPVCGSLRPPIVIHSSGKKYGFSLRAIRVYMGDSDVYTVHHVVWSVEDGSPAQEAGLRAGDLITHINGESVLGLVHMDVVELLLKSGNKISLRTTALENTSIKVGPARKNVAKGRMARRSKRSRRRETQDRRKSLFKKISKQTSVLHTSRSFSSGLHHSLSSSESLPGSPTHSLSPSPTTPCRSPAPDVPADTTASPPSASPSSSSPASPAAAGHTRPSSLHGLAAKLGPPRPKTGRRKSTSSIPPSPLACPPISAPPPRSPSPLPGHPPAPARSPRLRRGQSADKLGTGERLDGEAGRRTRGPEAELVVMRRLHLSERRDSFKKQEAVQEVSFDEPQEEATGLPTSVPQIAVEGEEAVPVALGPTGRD
# Sequence of Serine/threonine-protein kinase MRCK beta ; CDC42BPB ; Q9Y5S2 (Q9Y5S2 whole entry, one chain of several): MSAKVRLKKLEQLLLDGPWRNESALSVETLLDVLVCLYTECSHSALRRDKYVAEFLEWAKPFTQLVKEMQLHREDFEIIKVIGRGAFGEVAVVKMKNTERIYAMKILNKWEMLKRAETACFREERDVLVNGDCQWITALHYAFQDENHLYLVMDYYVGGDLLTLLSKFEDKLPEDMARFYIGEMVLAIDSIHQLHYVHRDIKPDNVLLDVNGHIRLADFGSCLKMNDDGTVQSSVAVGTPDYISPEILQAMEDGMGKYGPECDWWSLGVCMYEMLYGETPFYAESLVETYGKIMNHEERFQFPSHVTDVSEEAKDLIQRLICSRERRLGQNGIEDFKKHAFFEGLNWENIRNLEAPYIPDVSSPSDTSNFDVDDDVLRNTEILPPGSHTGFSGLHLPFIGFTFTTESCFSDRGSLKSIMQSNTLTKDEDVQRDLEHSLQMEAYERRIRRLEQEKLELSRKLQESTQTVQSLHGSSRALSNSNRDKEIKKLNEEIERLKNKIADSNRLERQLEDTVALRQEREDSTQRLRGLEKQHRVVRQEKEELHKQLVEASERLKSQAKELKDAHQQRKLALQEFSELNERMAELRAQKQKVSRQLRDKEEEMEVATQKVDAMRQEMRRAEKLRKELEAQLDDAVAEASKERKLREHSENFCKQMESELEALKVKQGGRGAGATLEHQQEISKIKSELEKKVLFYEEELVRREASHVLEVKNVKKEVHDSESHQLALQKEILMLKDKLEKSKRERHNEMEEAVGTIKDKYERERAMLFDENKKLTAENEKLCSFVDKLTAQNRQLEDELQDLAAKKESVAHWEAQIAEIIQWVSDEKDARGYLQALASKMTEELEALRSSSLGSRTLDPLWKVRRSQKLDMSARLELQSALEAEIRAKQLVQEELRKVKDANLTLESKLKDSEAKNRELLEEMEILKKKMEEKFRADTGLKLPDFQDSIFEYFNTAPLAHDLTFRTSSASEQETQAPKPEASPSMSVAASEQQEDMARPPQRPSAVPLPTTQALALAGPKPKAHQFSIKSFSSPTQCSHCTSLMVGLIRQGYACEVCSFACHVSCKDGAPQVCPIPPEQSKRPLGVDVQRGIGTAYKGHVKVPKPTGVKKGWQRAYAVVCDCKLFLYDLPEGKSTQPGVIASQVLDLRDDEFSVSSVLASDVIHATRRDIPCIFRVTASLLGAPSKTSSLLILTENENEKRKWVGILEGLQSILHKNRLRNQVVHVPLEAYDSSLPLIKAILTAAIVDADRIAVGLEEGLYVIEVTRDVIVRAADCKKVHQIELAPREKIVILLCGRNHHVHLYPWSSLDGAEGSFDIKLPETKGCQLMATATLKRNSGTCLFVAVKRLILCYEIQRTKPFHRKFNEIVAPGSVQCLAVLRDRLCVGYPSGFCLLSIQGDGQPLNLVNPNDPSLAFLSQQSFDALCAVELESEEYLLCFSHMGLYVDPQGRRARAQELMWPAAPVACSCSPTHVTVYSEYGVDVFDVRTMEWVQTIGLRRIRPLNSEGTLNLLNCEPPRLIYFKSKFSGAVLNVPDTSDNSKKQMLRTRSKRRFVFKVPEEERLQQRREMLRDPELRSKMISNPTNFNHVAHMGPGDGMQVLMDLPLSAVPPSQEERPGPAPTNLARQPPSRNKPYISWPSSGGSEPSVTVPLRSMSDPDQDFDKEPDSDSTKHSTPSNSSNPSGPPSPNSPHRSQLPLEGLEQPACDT
compound,measurement,setting,value
COc1cc(F)ccc1-c1ncnc(Nc2cccc(C[S@](C)(=N)=O)c2)n1 [BAY-1143572],remaining activity at 10 µM,[1]; [24],106%
same,remaining activity at 10 µM,[2]; [24],142%
same,remaining activity at 10 µM,[3]; [24],130%
same,remaining activity at 10 µM,[4]; [24],141%
same,remaining activity at 10 µM,[5]; [24],109%
same,remaining activity at 10 µM,[6]; [24],141%
same,remaining activity at 10 µM,[7]; [24],107%
same,remaining activity at 10 µM,[8]; [24],121%
same,remaining activity at 10 µM,[9]; [24],116%
same,remaining activity at 10 µM,[10]; [24],106%
same,remaining activity at 10 µM,[11]; [24],124%
same,remaining activity at 10 µM,[12]; [24],79.4%
same,remaining activity at 10 µM,[13]; [24],106%
same,remaining activity at 10 µM,[14]; [24],114%
same,remaining activity at 10 µM,[15]; [24],125%
same,remaining activity at 10 µM,[16]; [24],137%
same,remaining activity at 10 µM,[17]; [24],97.7%
same,remaining activity at 10 µM,[18]; [24],102%
same,remaining activity at 10 µM,[19]; [24],123%
same,remaining activity at 10 µM,[20]; [24],93.7%
same,remaining activity at 10 µM,[21]; [24],75.8%
same,remaining activity at 10 µM,[22]; [24],106%
same,remaining activity at 10 µM,[23]; [24],111%
COc1cc(F)ccc1-c1cc(Nc2cc(CS(C)(=N)=O)ccn2)ncc1F (stereo not shown) [BAY-1251152],remaining activity at 10 µM,[1]; [25],113%
same,remaining activity at 10 µM,[2]; [25],131%
same,remaining activity at 10 µM,[3]; [25],115%
same,remaining activity at 10 µM,[4]; [25],133%
same,remaining activity at 10 µM,[5]; [25],104%
same,remaining activity at 10 µM,[6]; [25],123%
same,remaining activity at 10 µM,[7]; [25],96.1%
same,remaining activity at 10 µM,[8]; [25],112%
same,remaining activity at 10 µM,[9]; [25],108%
same,remaining activity at 10 µM,[10]; [25],108%
same,remaining activity at 10 µM,[11]; [25],106%
same,remaining activity at 10 µM,[12]; [25],82.9%
same,remaining activity at 10 µM,[13]; [25],142%
same,remaining activity at 10 µM,[14]; [25],109%
same,remaining activity at 10 µM,[15]; [25],127%
same,remaining activity at 10 µM,[16]; [25],129%
same,remaining activity at 10 µM,[17]; [25],53.8%
same,remaining activity at 10 µM,[18]; [25],101%
same,remaining activity at 10 µM,[19]; [25],111%
same,remaining activity at 10 µM,[20]; [25],94.5%
same,remaining activity at 10 µM,[21]; [25],68.5%
same,remaining activity at 10 µM,[22]; [25],94%
same,remaining activity at 10 µM,[23]; [25],105%

# From publication doi:10.1101/2024.08.13.607785v1 (biorxiv, 2024)
